Legend:
[1] = target: T1, RNA-dependent DNA polymerase activity of HIV reverse transcriptase (Human immunodeficiency virus type 1 group M subtype B, UniProt P03366); test: RNA-dependent DNA polymerase activity assay of HIV reverse transcriptase; assay type: biochemical, HIV-1; conditions: 10 μM inhibitor concentration; activity in presence / in absence of analog x 100
T1 construct: made in house
Experimental: In separate representative assays, mappicine analogs were tested for their ability to inhibit the RNA-dependent DNA polymerase activity of HIV reverse transcriptase and for their ability to inhibit the RNase H activity of HIV reverse transcriptase. The assay for RNA-dependent DNA polymerase activity is discussed in Borkow, G. et al., “Inhibition of the Ribonuclease H and DNA Polymerase Activities of HIV-1 Reverse Transcriptase by N-(4-tert-Butylbenzoyl)-2-hydroxy-1-naphthaldehyde Hydrazone,” Biochemistry 1997, 36, 3179-3185, a copy of which is attached hereto and the disclosure of which is incorporated herein by reference. Assays were carried out in the absence and in the presence of mappicine analogs (10 μM final concentration). The results are reported as % residual activity, which is the RNA-dependent DNA polymerase activity of the enzyme in the presence of the mappicine analog divided by the RNA-dependent activity of the enzyme in the absence of the mappicine analog, multiplied by 100.

[2] = target: T2, RNase H activity of HIV reverse transcriptase (Human immunodeficiency virus type 1 group M subtype B, UniProt P03366); test: Fluorescence (FRET)-based RNase H assay of HIV reverse transcriptase; assay type: biochemical, HIV-1; conditions: for Residual activity (%) RNase H: 10 μM inhibitor concentration, activity in presence / in absence of analog x 100
T2 construct: 2.5 nM of the p51/p66 RT heterodimer in the assay; made in house
Experimental: Recently, a fluorescence-based assay to perform screens in search of HIV RNase H inhibitors has been developed. The assay, which is carried out in 96-well microplates and is adaptable to robotics, is the first high-throughput screen for RNase H and is described in further detail in the Experimental section. HIV-1 RT and human RNase H were cloned, and thus comparative analysis of inhibitor action could be conducted simultaneously.
The assay for RNase H activity of HIV reverse transcriptase was the fluorescence-based assay described in detail in the Experimental section and discussed in U.S. Provisional Patent Application Serial No. 60/318,359. Assays were carried out in the absence and in the presence of mappicine analogs (10 μM or 20 μM final concentration). The results are reported as % residual activity, which is the RNase H activity of the enzyme in the presence of the mappicine analog divided by the RNase H activity of the enzyme in the absence of the mappicine analog, multiplied by 100. Alternatively, the results are reported as % inhibition, which is calculated as the ratio of the RNase H activity of the enzyme in the presence of the mappicine analog to the enzyme activity in the absence of the mappicine analog, multiplied by 100, and then subtracting this number from 100.
Assay for Ribonuclease H Activity Based on Fluorescence Resonance Energy Transfer (FRET)
Preparation of the Fluorophore-RNA/Quencher-DNA Hybrid Duplex Substrate.
The RNA/DNA hybrid duplex substrate for use in the assay comprises an RNA oligonucleotide of sequence 5′-GAU CUG AGC CUG GGA GCU-3′, modified at the 3′-end with Aminolink-2 and derivatized with fluorescein isothiocyanate, to provide a modified RNA oligonucleotide of the sequence 5′-GAU CUG AGC CUG GGA GCU-fluorescein-3′, annealed to a complementary DNA oligonucleotide of the sequence 5′-AGC TCC CAG GCT CAG ATC-3′ modified at the 5′-end with Aminolink-2 and derivatized with the FRET acceptor DABCYL succinimidyl ester, to provide a modified DNA oligonucleotide of the sequence 5′-DABCYL-AGC TCC CAG GCT CAG ATC-3′.
To prepare the 3′-fluorescein-RNA/5′-DABCYL-DNA hybrid duplex substrate, a known amount of 3′-fluorescein-RNA was dissolved in 20 mM Tris buffer (pH 8.0, 37° C.) to provide a final concentration of 5 μM. Two equivalents of the 5′-DABCYL-DNA oligonucleotide were added, and the mixture was heated to 90° C. for 5 min and cooled slowly to room temperature to allow duplex formation. The positioning of the fluorescein donor at the 3′-end of the RNA oligonucleotide and the DABCYL acceptor at the 5′-end of the DNA oligonucleotide provides a very close proximity of the donor and acceptor that results in a very intense quenching of the fluorescein emission in the intact RNA/DNA hybrid duplex substrate due to the spectral overlap of the fluorescence emission of fluorescein with the absorption spectrum of DABCYL. In addition, DABCYL is non-fluorescent, and thus cannot contribute any light emission. Both of these factors result in a very low background and provide a high signal-to-noise in the assay measurements. The ratio of the donor fluorescence in the absence and in the presence of its quencher is approximately fifteen-fold.
Microplate Assay Protocol for the Measurement of RNase H Activity Using the RNA/IDNA Hybrid Duplex Substrate.
Reaction assay mixtures contained 5 μl of a stock solution of 2.5 μM RNA/DNA hybrid duplex substrate added to 85 μl of assay buffer (50 mM Tris, pH 8.0, 37° C., containing 60 mM KCl and 2.5 mM MgCl2), prepared in the wells of a 96-well fluorescence microtiter plate, and warmed to 37° C. using the temperature control of the SpectraMax Gemini XS microplate spectrofluorometer (Molecular Devices). Reactions were started by the addition of 5 μl of a solution of recombinant HIV-1 reverse transcriptase (usually providing a final concentration of 2.5 nM of the p51/p66 RT heterodimer in the assay), and mixing using the automatic mixing function of the microplate spectrofluorometer. […]

Compound | Residual activity (%) Polymerase [1] [%] | Residual activity (%) RNase H [2] [%] | inhibition at 20 µM ([2]; 20 μM inhibitor concentration) [%] | % inhibition of RNase H at 20 μM ([2]; 20 μM inhibitor concentration) [%]
2-Acetoxy-12-ethyl-7-(1-hydroxypropyl)-8-methyl-1H-indolizino [1,2-b]quinolin-9-one [5 (AG 7M)] | 99 | 63 | – | –
CCC(O)c1cc2n(c(=O)c1C)Cc1c-2nc2ccccc2c1-c1ccccc1 (centres unmarked) [5 (3Aα)] | 90 | 97 | – | –
CCC(=O)c1cc2n(c(=O)c1C)Cc1c-2nc2ccccc2c1-c1ccccc1 [5 (3Aακ)] | 64 | 87 | – | –
Cc1c(C(O)C(C)(C)C)cc2n(c1=O)Cc1c-2nc2ccccc2c1-c1ccccc1 (centres unmarked) [5 (3Aβ)] | 54 | 95 | – | –
Cc1c(C(=O)C(C)(C)C)cc2n(c1=O)Cc1c-2nc2ccccc2c1-c1ccccc1 [5 (3Aβκ)] | 64 | 94 | – | –
Cc1c(C(O)CCC2CCCCC2)cc2n(c1=O)Cc1c-2nc2ccccc2c1-c1ccccc1 (centres unmarked) [5 (3Aδ)] | 32 | 104 | – | –
Cc1c(C(=O)CCC2CCCCC2)cc2n(c1=O)Cc1c-2nc2ccccc2c1-c1ccccc1 [5 (3Aδκ)] | 66 | 73 | – | –
Cc1c(C(O)Cc2ccccc2)cc2n(c1=O)Cc1c-2nc2ccccc2c1-c1ccccc1 (centres unmarked) [5 (3Aε)] | 34 | 99 | – | –
CCC(O)c1cc2n(c(=O)c1C)Cc1c-2nc2ccc(F)cc2c1-c1ccccc1 (centres unmarked) [5 (3Bα)] | 54 | 83 | – | –
CCC(=O)c1cc2n(c(=O)c1C)Cc1c-2nc2ccc(F)cc2c1-c1ccccc1 [5 (3Bακ)] | 100 | 94 | – | –
Cc1c(C(O)C(C)(C)C)cc2n(c1=O)Cc1c-2nc2ccc(F)cc2c1-c1ccccc1 (centres unmarked) [5 (3Bβ)] | 78 | 75 | – | –
Cc1c(C(=O)C(C)(C)C)cc2n(c1=O)Cc1c-2nc2ccc(F)cc2c1-c1ccccc1 [5 (3Bβκ)] | 61 | 95 | – | –
Cc1c(C(O)CCC2CCCCC2)cc2n(c1=O)Cc1c-2nc2ccc(F)cc2c1-c1ccccc1 (centres unmarked) [5 (3Bδ)] | 81 | 99 | – | –
Cc1c(C(=O)CCC2CCCCC2)cc2n(c1=O)Cc1c-2nc2ccc(F)cc2c1-c1ccccc1 [5 (3Bδκ)] | 59 | 93 | – | –
Cc1c(C(O)Cc2ccccc2)cc2n(c1=O)Cc1c-2nc2ccc(F)cc2c1-c1ccccc1 (centres unmarked) [5 (3Bε)] | 28 | 91 | – | –
CCC(O)c1cc2n(c(=O)c1C)Cc1c-2nc2ccc(C)cc2c1-c1ccccc1 (centres unmarked) [5 (3Cα)] | 64 | 96 | – | –
CCC(=O)c1cc2n(c(=O)c1C)Cc1c-2nc2ccc(C)cc2c1-c1ccccc1 [5 (3Cακ)] | 71 | 99 | – | –

Compound | Residual activity (%) Polymerase [1] [%] | Residual activity (%) RNase H [2] [%] | inhibition at 20 µM ([2]; 20 μM inhibitor concentration) [%] | % inhibition of RNase H at 20 μM ([2]; 20 μM inhibitor concentration) [%]
Cc1ccc2nc3c(c(-c4ccccc4)c2c1)Cn1c-3cc(C(=O)C(C)(C)C)c(C)c1=O [5 (3Cβκ)] | 63 | 96 | – | –
Cc1ccc2nc3c(c(-c4ccccc4)c2c1)Cn1c-3cc(C(=O)CCC2CCCCC2)c(C)c1=O [5 (3Cδκ)] | 65 | 93 | – | –
Cc1ccc2nc3c(c(-c4ccccc4)c2c1)Cn1c-3cc(C(O)Cc2ccccc2)c(C)c1=O (centres unmarked) [5 (3Cε)] | 76 | 101 | – | –
CCC(O)c1cc2n(c(=O)c1C)Cc1c-2nc2ccc(OC)cc2c1-c1ccccc1 (centres unmarked) [5 (3Dα)] | 69 | 78 | – | –
CCC(=O)c1cc2n(c(=O)c1C)Cc1c-2nc2ccc(OC)cc2c1-c1ccccc1 [5 (3Dακ)] | 76 | 104 | – | –
COc1ccc2nc3c(c(-c4ccccc4)c2c1)Cn1c-3cc(C(O)C(C)(C)C)c(C)c1=O (centres unmarked) [5 (3Dβ)] | 85 | 70 | – | –
COc1ccc2nc3c(c(-c4ccccc4)c2c1)Cn1c-3cc(C(O)CCC2CCCCC2)c(C)c1=O (centres unmarked) [5 (3Dδ)] | 60 | 67 | – | –
COc1ccc2nc3c(c(-c4ccccc4)c2c1)Cn1c-3cc(C(=O)CCC2CCCCC2)c(C)c1=O [5 (3Dδκ)] | 81 | 97 | – | –
COc1ccc2nc3c(c(-c4ccccc4)c2c1)Cn1c-3cc(C(O)Cc2ccccc2)c(C)c1=O (centres unmarked) [5 (3Dε)] | 61 | 79 | – | –
Cc1c(C(O)C2CCCCC2)cc2n(c1=O)Cc1c-2nc2ccc(OC(F)(F)F)cc2c1-c1ccccc1 (centres unmarked) [Compound 6.8.7, 7-(Cyclohexylhydroxymethyl)-8-methyl-1 2-phenyl-2-trifluoromethoxy-11H-indolizino[1,2-b]quinolin-9-one] | – | – | 87 | –
CCc1c2c(nc3c(F)cccc13)-c1cc(C(O)CCC3CCCCC3)c(C)c(=O)n1C2 (centres unmarked) [Compound 7.4.8] | – | – | – | 95
CCCc1c2c(nc3c(F)cccc13)-c1cc(C(O)CCC3CCCCC3)c(C)c(=O)n1C2 (centres unmarked) [Compound 7.5.8] | – | – | – | 82
CCCCCc1c2c(nc3ccc(C(F)(F)F)cc13)-c1cc(C(O)CCC3CCCCC3)c(C)c(=O)n1C2 (centres unmarked) [Compound 7.7.4] | – | – | – | 75
CCc1ccc2nc3c(c(-c4ccccc4)c2c1)Cn1c-3cc(C(O)CCC2CCCCC2)c(C)c1=O (centres unmarked) [Compound 7.8.5] | – | – | – | 65
Cc1c(C(O)CCC2CCCCC2)cc2n(c1=O)Cc1c-2nc2ccc(Cl)cc2c1-c1ccccc1 (centres unmarked) [Compound 7.8.6] | – | – | – | 90
Cc1ccc2nc3c(c(-c4ccccc4)c2c1)Cn1c-3cc(C(O)CCC2CCCCC2)c(C)c1=O (centres unmarked) [Compound 7.8.9] | – | – | – | 61

Reference: patent US20040077674A1, “Mappicine analogs, intermediates in the synthesis of mappicine analogs and methods of synthesis of mappicine analogs” (priority 2002, published 2004)
